# Assay results: patent US5298502A, “Method and composition for photodynamic treatment and detection of tumors” (priority 1991, dated 1994)
# “Also recorded” adds a separate entry of the source.
# Assays:
# [1] = Tolerance of intraperitoneal injection in mice; conditions: mouse, in vivo, ip, 60% corn oil and 40% DMSO, read-out: tolerated dose
# Method: c. In tests of the agent injected intraperitoneally in a mixture of 60% corn oil and 40% DMSO it was determined that the mice could tolerate a dose of 100 mg/kg.
# [2] = LD50, single oral dose, mice; conditions: mouse, in vivo, single oral dose in corn oil and 5% of the agent, 14-day period
# [3] = tested on: male Fisher 344 rat; test: Proto IX levels in tissues of rat fed agent for 27 days; assay type: in vivo; conditions: feed containing 5000 ppm for 27 days
# Excerpt: In another test, a male Fisher 344 rat was fed for 27 days with feed containing 5000 ppm of agent 6c and then sacrificed.
# In the foregoing tests of rats and mice the animals were kept on a standard 12 hr. dark-12 hr. light cycle.
# [4] = tested on: DBA/2 Ha mice with SMT-F subcutaneous tumors; test: Proto IX content of tissues of tumor-bearing mice fed the agent (Example 6); assay type: in vivo
# Method: In this Example the enzyme-inhibiting agents were added to the feed of tumor-bearing mice; for some of the mice, used as a control, no agent was added to the feed. The mice were then sacrificed and their kidneys, intestines, adrenal glands, liver and tumor were removed and analyzed for their content of Proto IX. The following enzyme-inhibiting agents were employed: [drawing 10]
# More particularly, the mice were DBA/2 Ha mice which had been injected with SMT-F subcutaneous tumors on Day 0 in the right shoulder. The mice, individually housed, received untreated Purina Rodent Chow 5001 Mash on Day 1; thereafter on Days 2 through 10 the mice received the same Mash treated with 2000 ppm of the inhibiting agent being tested (or, for the controls, the same untreated Mash). The treatment of the Mash was effected by blending it with a small amount of an acetone solution of the agent to be tested. The mice were then sacrificed on Day 10, except for the mouse treated with the agent designated as 6j; the latter was sacrificed on Day 7. The tissues were refrigerated at 4° C. overnight, then blotted dry, and the fresh weight of each tissue sample was recorded. The tissues were then homogenized in 5 mL, or lo mL in the cases of intestines and liver, of acetone-0.1 N NH4 OH (9:I, v/v). The homogenates were then centrifuged at 1500 g and the supernatants were analyzed on a SPEX FAII2 spectrofluorometer; excitation 400 nm, emission 630 nm wavelengths, the optima for Proto IX. Proto IX accumulation was determined as CPS (fluorescent counts per second emitted) per gram of tissue. The results are tabulated below (results are averages for two mice for each treatment, except for treatments with agents 6f, 6h, 6i and 6j in each of which only one mouse was treated): […]
# [5] = tested on: chondrosarcoma; test: Photodynamic treatment of chondrosarcoma in rats fed the agent (Example 9); assay type: in vivo, Sprague-Dawley rats
# Method: Specifically, three Sprague-Dawley rats of average weight 120 g were placed on a diet of feed containing 2000 ppm of the agent for a period of 6 days. On day 3, chondrosarcoma was implanted into the right hind limb of each rat by injecting 0.3 mL of a suspension of the tumor cells (about one million tumor cells). On day 6 the right hind limb of each rat was shaven and depilated, the size of each tumor was measured, and the tumor area and surrounding skin were then exposed to non-thermal doses of 630 nm light for a total of 270 J/cm^2.
# In another set of experiments, 20 of the rats were placed on the same diet as above (i.e. feed containing 2000 ppm of agent), provided ad libitum, for 10 days before the treatment with the light, and the injection of the tumor cell suspension was made after the animals had been on the diet for 7 days. Such an injection causes the formation of a tumor having a well defined vascular network within 1 to 2 days. At the time of the treatment with light the tumors had diameters of 5-8 mm and were free of evident necrosis.
# [6] = 2000 ppm in feed Days 2-10, sacrificed Day 10 (6j Day 7)
# [7] = 20 rats, 2000 ppm in feed for 10 days
structure (smiles),measurement,setting,value
Cc1nn(-c2cc(NS(C)(=O)=O)c(Cl)cc2Cl)c(=O)n1C(F)F [Agent 6c],MTD,[1],100 mg/kg
same,LD50 at 336 h,[2],> 700 mg/kg
same,Proto IX level in muscle tissue,[3],only a small increase
same,"Proto IX levels in kidney, intestine, stomach and brain",[3],marked increases
same,Proto IX levels in tissues as compared to a control,[3],increased levels of Proto IX as compared to a control
same,"concentration of Proto IX in tissue, Adrenal",[4]; 2000 ppm in feed,126 ug of Proto IX per gram of tis
same,"concentration of Proto IX in tissue, Intestine",[4]; 2000 ppm in feed,91 ug of Proto IX per gram of tis
same,"concentration of Proto IX in tissue, Kidneys",[4]; 2000 ppm in feed,148 ug of Proto IX per gram of tis
same,"concentration of Proto IX in tissue, Liver",[4]; 2000 ppm in feed,25 ug of Proto IX per gram of tis
same,"concentration of Proto IX in tissue, Tumor",[4]; 2000 ppm in feed,131 ug of Proto IX per gram of tis
same,"Proto IX Mean Cps per gram, Adrenal",[4]; [6],13790 Cps per gram × 10^3
same,"Proto IX Mean Cps per gram, Kidneys",[4]; [6],16186 Cps per gram × 10^3
same,"Proto IX Mean Cps per gram, Liver",[4]; [6],2739 Cps per gram × 10^3
same,"Proto IX Mean Cps per gram, Tumor",[4]; [6],14336 Cps per gram × 10^3
same,Weight of Tumor as excised,[4]; [6],157 mg
same,"Proto IX Mean Cps per gram, Intestine","[4]; 2000 ppm in feed, samples diluted with 3 parts basic acetone to one part sample",9937 Cps per gram × 10^3
same,tumors that regrew over time,[5]; [7],~95%
same,tumors with visible regression on the day following the light treatment,[5]; [7],75%
same,effect on surrounding skin and muscle tissue,"[5]; 2000 ppm in feed for 6 days, 630 nm light 270 J/cm^2",slightly blanched and showed some swelling
same,occlusion of blood flow to the treatment area,[5]; sodium fluoroscin injection immediately after exposure to light,did not cause apparent occlusion of blood flow
same,tumor regression on the day after light treatment,"[5]; three rats, 2000 ppm in feed for 6 days, 630 nm light 270 J/cm^2",two of the rats were found to be apparently free of their tumors; also recorded: the third rat showed almost complete regression of its tumor
